These results are taken from patent US20140045695A1, “Continuous Fiber Layer Comprising an Active Substance on the Basis of Bio-polymers, the Use Thereof, and Method for the Production Thereof” (priority 2008, published 2014).

Structures are written as SMILES. ≈ marks a conversion by molar mass, not a printed value. Where two headings read alike, the source gives them in different places.

Data set [1] in a line: Crystallinity studies by x-ray diffraction (WAXS in transmission). It is filed as physicochemical. An excerpt:
FIG. 2 crystallinity studies (WAXS in transmission) of the GGE active ingredient in the C16 spider silk protein formulations obtained by electrospinning compared to the pure substances (GGE or C16 powder);
FIG. 6 crystallinity studies (WAXS in transmission) of the clotrimazole active ingredient in the C16 spider silk protein formulations obtained by electrospinning compared to pure clotrimazole;
FIG. 9 crystallinity studies (WAXS in transmission) of the metazachlor active ingredient in the C16 spider silk protein formulations obtained by electrospinning compared to pure metazachlor;
FIG. 12 crystallinity studies (WAXS in transmission) of the Uvinul A+ active ingredient in the C16 spider silk protein formulations obtained by electrospinning compared to Uvinul A+ pure substance;
FIG. 16 crystallinity studies (WAXS in transmission) of the Uvinul A+ active ingredient in the R16 protein nonwoven (A) and S16 protein nonwoven (B) obtained by electrospinning compared to pure Uvinul A+;

For data set [2] the following is noted: cited from earlier work.

Take `Cc1cccc(C)c1N(Cn1cccn1)C(=O)CCl` [metazachlor]: in data set [1], the “crystallinity of the active ingredient in x-ray diffraction” value was “significant crystalline proportions”.
With `Clc1ccccc1C(c1ccccc1)(c1ccccc1)n1ccnc1` [Clotrimazole], in data set [2] (25° C.), the Solubility in water was below 0.01 g/L.
On to `NC(=O)N1c2ccccc2C=Cc2ccccc21` [Carbamazipine], for which the Solubility in water in data set [2] (RT) was 0.9451 g/L (≈ 4000 µM).
